Reference: patent publication US20200308624A1, “Phosphate and tensin homolog (PTEN) for the detection of autoimmune diseases or conditions” (Universitätsmedizin der Johannes Gutenberg-Universität Mainz, priority 2019, published 2020)

Tests used:
Type in all cases: cell-based, human
[1] = test system: Treg-resistant T cells from MS patients; test: Suppressor assay: MS T cells cocultured with Treg, proliferation by 3H-Tdr incorporation; conditions: anti-CD3 mAb stimulation, FIG. 1E, n=4
Procedure: A) PBMC from therapy-naïve MS patients (red) or HC (black) were cocultured with Treg and stimulated with anti-CD3 mAb. T cell proliferation was determined by ^3H-Tdr incorporation on day three. Box plots show percentage of suppression in presence of Treg (ratio 4:1) normalized to proliferation of T cells alone as median with interquartile range (n=15), P-values relative to T cells of HC are shown, to avoid familywise error rate bonferroni correction was used p*. B) C) IL-6R expression within CD3+ T cells of PBMC from HC or MS was determined by flow cytometry. One representative of eight independent experiments is shown. D) PKB/c-Akt phosphorylation was determined by flow cytometry within CD3^+ T cells of MS (red) or HC (black). Six different experiments are shown, p-values relative to MFI of HC. E) MS T cells with Treg were stimulated with anti-CD3 mAb without (circle) or with (quadrats) anti-IL-6R mAb or (triangles) Akt-VIII inhibitor. Each dot represents percentage of proliferation with Treg normalized to T cells alone (n=4), p-values to MS T cells.
CD4^+CD25^− T cells (10^5 cells/well, 96 well plate, flat bottom) were stimulated with 0.1 μg/ml anti-CD3 mAb (OKT-3) and cultured in presence or absence of different Treg ratios. CD3-depleted PBMC (5×10^4/well) were used as costimulus. […] T cell proliferation was measured by ^3H-Tdr incorporation using a liquid […] counter. […]

[2] = test system: CD4+CD25- T cells from healthy donors; test: Suppressor assay: T cells and Treg cocultured in presence of IL-6 (3H-Tdr); conditions: T cells from healthy donors incubated overnight with IL-6 (500 ng/ml)
Description: In addition to PKB, also IL-6 and its signaling pathway play a crucial role in whether T cells from MS patients respond to suppression by Treg or not. In the context of autoimmune diseases, it has been investigated how the increased IL-6 production observed in MS can affect PTEN protein expression.
(§1) FIG. 5: IL-6 mediates Treg resistance by inducing the phosphorylation of PKB/c-Akt and downregulation of PTEN in activated T cells A) T cells and Treg were cocultured in presence (grey) or absence (black) of IL-6 and stimulated with anti-CD3 mAb. […] B) PKB/c-Akt phosphorylation was analyzed by flow cytometry within T cells after 24 h of culture with (black) or without IL-6 (grey). C) T cells from HC were incubated for 24 h without IL-6 (black) or with IL-6 (grey) or IL-6 and anti-IL-6R mAb (striped). Shown is the mean fluorescence intensity (MFI) of pPKB/c-Akt in T cells (n=5). D) PBMC from HC were cultured for 24 h in the presence or absence of 500 ng/ml IL-6. […] Total proteins were isolated and PTEN protein expression was analyzed via western blot.
CD4^+CD25^− T cells (10^5 cells/well, 96 well plate, flat bottom) were stimulated with 0.1 μg/ml anti-CD3 mAb (OKT-3) and cultured in presence or absence of different Treg ratios. […] T cell proliferation was measured by ^3H-Tdr incorporation using a liquid […] counter. […]

[3] = test system: PTEN protein; test: PTEN protein expression in IL-6-treated activated CD4+ T cells (Western blot); conditions: IL-6-treated (500 ng/ml, 24 h) T cells, 2 hours after polyclonal activation, compared to untreated controls
Procedure: FIG. 5: IL-6 mediates Treg resistance by inducing the phosphorylation of PKB/c-Akt and downregulation of PTEN in activated T cells A) T cells and Treg were cocultured in presence (grey) or absence (black) of IL-6 and stimulated with anti-CD3 mAb. […] B) PKB/c-Akt phosphorylation was analyzed by flow cytometry within T cells after 24 h of culture with (black) or without IL-6 (grey). C) T cells from HC were incubated for 24 h without IL-6 (black) or with IL-6 (grey) or IL-6 and anti-IL-6R mAb (striped). Shown is the mean fluorescence intensity (MFI) of pPKB/c-Akt in T cells (n=5). D) PBMC from HC were cultured for 24 h in the presence or absence of 500 ng/ml IL-6. CD4^+ T cells were isolated, left unstimulated or were activated with anti-CD3 and anti-CD28 mAb for two hours. Total proteins were isolated and PTEN protein expression was analyzed via western blot.
Cell pellets were lysed in Cell Extraction Buffer (Invitrogen) supplemented with 1 mM PMSF (Invitrogen) and Protease Inhibitor Cocktail (Sigma) for 30 min on ice with vortexing at 10 min intervals. Total protein concentration of cell lysates was determined with Micro BCA Protein Assay Kit (Thermo Fisher Scientific) according to manufacturer's protocol. Protein separation was performed using the NuPAGE® Bis-Tris electrophoresis system (Thermo Fisher Scientific). […] Western blots were analyzed and quantified with ImageJ software.

[4] = test system: PKB/c-Akt; test: PKB/c-Akt phosphorylation in T cells after culture with IL-6 (flow cytometry)
Procedure: as §1
Flow cytometric analysis was performed using the following antibodies: anti-human CD3 (UCHT1), anti-human CD4 (RPA-T4), anti-human CD8 (SK1), anti-human CD14 (M5E2), anti-human CD19 (HIB19), all from BD Pharmingen, anti-human CD25 (4E3), anti-human CD127 (MB15-18C9), all from Miltenyi Biotec. […] Cell viability during flow cytometric analysis was determined using 7-AAD and eFluor506 (eBioscience). […] Stained cells were measured on LSRII with FACS Diva Software (BD Bioscience) or FACSVia™ and data was analyzed with BD FACSVia Research Software (BD Biosciences). […]

| Compound | responsiveness towards Treg-mediated suppression [1] | Treg resistance [2] | PTEN protein expression [3] | phosphorylation of protein kinase B ([4]; T cells from healthy donors, 24 h with IL-6) | IL-6-induced hyperactivation of PKB ([4]; T cells from HC, 24 h with IL-6 and anti-IL-6R mAb, n=5) |
| --- | --- | --- | --- | --- | --- |
| O=c1[nH]c2ccccc2n1C1CCN(Cc2ccc(-c3nc4cc5nc[nH]c5cc4nc3-c3ccccc3)cc2)CC1 [Akt VIII] | restores responsiveness towards Treg-mediated suppression | – | – | – | – |
| IL-6: cytokine IL-6 (ImmunoTools) added to cultures | – | induce Treg resistance | significant decrease in PTEN protein expression | increased phosphorylation of protein kinase B | – |
| Tocilizumab [anti-IL-6 receptor antibody] | restores responsiveness towards Treg-mediated suppression | – | – | – | abolished this effect |
